PubChem BioAssay (NCI)
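Compound exposure: 48 hours, 5 concentrations, 96-well plates. TGI: concentration producing complete growth inhibition.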

Legend:
Test in all cases: NCI tumour cell line growth inhibition, 48 h
CCRF-CEM leukemia = system: CCRF-CEM leukemia
HCT-15 colon = system: HCT-15 colon
OVCAR-8 ovarian = system: OVCAR-8 ovarian
DLD-1 colon = system: DLD-1 colon
DMS 114 small cell lung = system: DMS 114 small cell lung
DMS 273 small cell lung = system: DMS 273 small cell lung
HOP-18 NSCLC = system: HOP-18 NSCLC
KM20L2 colon = system: KM20L2 colon
LXFL 529 NSCLC = system: LXFL 529 NSCLC
M19-MEL melanoma = system: M19-MEL melanoma
SNB-78 CNS = system: SNB-78 CNS
RXF-631 renal = system: RXF-631 renal

O=C1Cc2c(-c3ccccc3)cc(-c3ccc(Cl)cc3)nc2-c2ccccc2N1
TGI (CCRF-CEM leukemia): > 53.4 µM
TGI (HCT-15 colon): > 55 µM
TGI (OVCAR-8 ovarian): 9.09 µM

CC(=O)OC1C(C)OC(OC2C[C@](O)(C(C)=O)Cc3c(O)c4c(c(O)c32)C(=O)c2ccccc2C4=O)C(F)C1OC(C)=O (some centres not stated)
TGI (CCRF-CEM leukemia): 1.51 µM
TGI (HCT-15 colon): 6.34 µM
TGI (OVCAR-8 ovarian): 10.7 µM

O=C(C[N+]1(c2ccccc2)CCOCC1)c1ccccc1
TGI (HCT-15 colon): > 100 µM
TGI (OVCAR-8 ovarian): > 100 µM

CCCSC1=N/C(=C\c2ccco2)C(=O)N1
TGI (HCT-15 colon): > 100 µM
TGI (OVCAR-8 ovarian): > 100 µM

O=C1c2sccc2C(=O)c2c(CO)csc21
TGI (CCRF-CEM leukemia): > 51.6 µM
TGI (HCT-15 colon): 11.2 µM
TGI (OVCAR-8 ovarian): 12.4 µM

N#Cc1c2c(c(Nc3ccc(Cl)cc3)n3c1nc1ccccc13)CCCC2
TGI (CCRF-CEM leukemia): > 100 µM
TGI (HCT-15 colon): > 100 µM
TGI (OVCAR-8 ovarian): > 100 µM

CN1Cc2c(ccc3c2OCO3)[C@@H]2[C@H](O)Cc3cc4c(cc3[C@@H]21)OCO4
TGI (CCRF-CEM leukemia): > 29.2 µM
TGI (HCT-15 colon): 6.74 µM
TGI (OVCAR-8 ovarian): > 51.5 µM

Nc1nc2c(c(-c3ccc(F)cc3)n1)COC/C2=C\c1ccc(F)cc1
TGI (CCRF-CEM leukemia): > 100 µM
TGI (HCT-15 colon): > 100 µM
TGI (OVCAR-8 ovarian): > 100 µM

O=C1C[C@@]23CCC4(CC2=CCC[C@H]3O1)OCCO4
TGI (HCT-15 colon): > 100 µM

O=P1(C(O)c2ccccc2)N(Cc2ccccc2)[C@@H]2CCCC[C@H]2N1Cc1ccccc1 (some centres not stated)
TGI (CCRF-CEM leukemia): > 100 µM
TGI (HCT-15 colon): > 100 µM
TGI (OVCAR-8 ovarian): > 100 µM

CNc1nc(OC)c2c(n1)[n+](C)cn2C
TGI (CCRF-CEM leukemia): > 100 µM
TGI (HCT-15 colon): > 100 µM
TGI (OVCAR-8 ovarian): > 100 µM

COC(=O)C1=C(C)C(=O)C2(CCCCCC2C(=O)OC)C1 (configuration not stated)
TGI (CCRF-CEM leukemia): > 100 µM
TGI (DLD-1 colon): > 100 µM
TGI (DMS 114 small cell lung): > 100 µM
TGI (DMS 273 small cell lung): > 100 µM
TGI (HCT-15 colon): > 100 µM
TGI (HOP-18 NSCLC): > 100 µM
TGI (KM20L2 colon): > 100 µM
TGI (LXFL 529 NSCLC): > 100 µM
TGI (M19-MEL melanoma): > 100 µM
TGI (OVCAR-8 ovarian): > 100 µM
TGI (SNB-78 CNS): > 100 µM

Clc1cc2ncn(C3CCCO3)c2cc1Cl (configuration not stated)
TGI (CCRF-CEM leukemia): > 100 µM
TGI (HCT-15 colon): > 100 µM
TGI (OVCAR-8 ovarian): > 100 µM

CCCCCNC(=O)OC1CCn2c1nc1c2C(=O)C(C)=C(N2CC2)C1=O (configuration not stated)
TGI (CCRF-CEM leukemia): > 100 µM
TGI (HCT-15 colon): 4.45 µM
TGI (OVCAR-8 ovarian): 5.31 µM

CC(C)(C)OC(=O)NCCCCC1NC(=O)[C@@H]2Cc3c([nH]c4ccccc34)C(c3ccccc3)N2C1=O (some centres not stated)
TGI (CCRF-CEM leukemia): > 100 µM
TGI (HCT-15 colon): > 100 µM
TGI (OVCAR-8 ovarian): > 100 µM

COc1ccc(OC)c2c(Nc3ccc(S(=O)(=O)O)c4cc(S(=O)(=O)O)cc(S(=O)(=O)O)c34)cc(C)nc12
TGI (CCRF-CEM leukemia): > 100 µM
TGI (HCT-15 colon): > 100 µM
TGI (OVCAR-8 ovarian): > 100 µM

C/C(=C\CNc1ncnc2c1ncn2CCC#N)CO
TGI (CCRF-CEM leukemia): > 100 µM
TGI (OVCAR-8 ovarian): > 100 µM

CCN(CC)CCCNc1nnc(C)c2[nH]c3ccccc3c12
TGI (CCRF-CEM leukemia): 63.9 µM
TGI (HCT-15 colon): > 100 µM
TGI (OVCAR-8 ovarian): 42.3 µM

CCCCC(C)(C/C=C/[C@@H]1[C@@H](C(O)CCCCCC(=O)OC)C(=O)C[C@H]1O[Si](C)(C)C(C)(C)C)O[Si](C)(C)C (some centres not stated)
TGI (CCRF-CEM leukemia): 85.4 µM
TGI (HCT-15 colon): > 100 µM
TGI (OVCAR-8 ovarian): > 100 µM

CCCCN1/C(=N/Nc2n[nH]c(=O)c3ccccc23)SCC1c1ccc(Cl)cc1 (configuration not stated)
TGI (HCT-15 colon): 28.7 µM
TGI (OVCAR-8 ovarian): > 100 µM

CO/C(N)=C(\C#N)N=Cc1cccs1
TGI (CCRF-CEM leukemia): > 100 µM
TGI (HCT-15 colon): > 100 µM
TGI (OVCAR-8 ovarian): > 100 µM

C[C@@H](c1ccccc1)N(CC#N)[C@H]1CCC[C@]1(O)/C=C/c1ccc2c(c1)OCO2
TGI (CCRF-CEM leukemia): > 25 µM
TGI (HCT-15 colon): > 25 µM
TGI (OVCAR-8 ovarian): > 25 µM

N#Cc1c(N)n(-c2nc3ccccc3s2)c(=O)c2cc([N+](=O)[O-])ccc12
TGI (CCRF-CEM leukemia): 18.9 µM
TGI (HCT-15 colon): 19.4 µM
TGI (OVCAR-8 ovarian): 43.9 µM

COC(=O)C1CCC(=S)N1C(C)=O (configuration not stated)
TGI (HCT-15 colon): > 100 µM
TGI (OVCAR-8 ovarian): > 100 µM

Nc1nc2c(ccc3ccccc32)[nH]1
TGI (CCRF-CEM leukemia): > 10 µM
TGI (HCT-15 colon): > 10 µM
TGI (OVCAR-8 ovarian): > 10 µM

CCOC(=O)C1(NC(=O)OC(C)(C)C)CCc2[nH]oc(=O)c2C1 (configuration not stated)
TGI (CCRF-CEM leukemia): > 100 µM
TGI (HCT-15 colon): > 100 µM
TGI (OVCAR-8 ovarian): > 100 µM

CNC(=O)N(C)C(=O)c1ccccc1C(=O)N(C)C(=O)NC
TGI (CCRF-CEM leukemia): > 10 µM
TGI (HCT-15 colon): > 10 µM
TGI (OVCAR-8 ovarian): > 10 µM

Nc1nc(N)c2ncn(Cc3ccccc3)c2n1
TGI (CCRF-CEM leukemia): > 100 µM
TGI (HCT-15 colon): > 100 µM
TGI (OVCAR-8 ovarian): > 100 µM

Cc1nnc(N)s/c1=N/O
TGI (CCRF-CEM leukemia): > 100 µM
TGI (HCT-15 colon): > 100 µM
TGI (OVCAR-8 ovarian): > 100 µM

COc1ccc2c(C=O)c3n(c(=O)c2c1OC)CCc1cc2c(cc1-3)OCO2
TGI (CCRF-CEM leukemia): > 100 µM
TGI (HCT-15 colon): > 100 µM
TGI (OVCAR-8 ovarian): > 100 µM

CCOC(=O)C(NC(=O)c1cccc(Cl)c1)(N1CCN(c2cc3c(cc2F)c(=O)c(C(=O)O)cn3CC)CC1)C(F)(F)F (configuration not stated)
TGI (CCRF-CEM leukemia): 10.7 µM
TGI (HCT-15 colon): 38.2 µM
TGI (OVCAR-8 ovarian): 46.7 µM

CSC(=NCCCN=C(NS(=O)(=O)c1ccc(Cl)cc1)SC)NS(=O)(=O)c1ccc(Cl)cc1
TGI (CCRF-CEM leukemia): > 100 µM
TGI (HCT-15 colon): > 100 µM
TGI (OVCAR-8 ovarian): > 100 µM

CCCCCCCCCCCCCCCC(=O)OCC(COP(=O)(O)OCCNC(=O)CCSSc1ccccn1)OC(=O)CCCCCCCCCCCCCCC (configuration not stated)
TGI (CCRF-CEM leukemia): > 100 µM
TGI (HCT-15 colon): > 100 µM
TGI (OVCAR-8 ovarian): > 100 µM

CC(=O)Oc1cc(OC(C)=O)c2c(c1C)CC[C@@H]1[C@@H]2CC[C@]2(C)[C@@H](OC(C)=O)CC[C@@H]12
TGI (CCRF-CEM leukemia): 49.4 µM
TGI (HCT-15 colon): 33.3 µM
TGI (OVCAR-8 ovarian): 42.4 µM

O=C1Cc2c([nH]c3c(Br)cccc23)-c2ccccc2N1
TGI (CCRF-CEM leukemia): 35.6 µM
TGI (HCT-15 colon): > 100 µM
TGI (OVCAR-8 ovarian): > 100 µM

COc1cc(CC2C(=O)OCC2Cc2ccc(OC)c(OC)c2)ccc1O (configuration not stated)
TGI (CCRF-CEM leukemia): > 100 µM
TGI (HCT-15 colon): > 100 µM
TGI (OVCAR-8 ovarian): > 100 µM

Oc1[nH]c2ccccc2c1N=Nc1nc(-c2ccccc2)cs1
TGI (HCT-15 colon): > 100 µM
TGI (OVCAR-8 ovarian): > 100 µM

COc1ccc(Sc2ccccc2[N+](=O)[O-])cc1
TGI (CCRF-CEM leukemia): > 100 µM
TGI (DLD-1 colon): > 100 µM
TGI (DMS 273 small cell lung): > 100 µM
TGI (HCT-15 colon): > 100 µM
TGI (HOP-18 NSCLC): > 100 µM
TGI (LXFL 529 NSCLC): > 100 µM
TGI (M19-MEL melanoma): > 100 µM
TGI (OVCAR-8 ovarian): > 100 µM
TGI (RXF-631 renal): > 100 µM
TGI (SNB-78 CNS): 98.4 µM

O=C(c1ccccc1)n1c2ccc(Br)cc2c2nc3ccccc3nc21
TGI (CCRF-CEM leukemia): > 100 µM
TGI (HCT-15 colon): > 100 µM
TGI (OVCAR-8 ovarian): > 100 µM

FC(F)(Sc1nc2ccccc2[nH]1)c1nc2ccccc2o1
TGI (CCRF-CEM leukemia): > 100 µM
TGI (HCT-15 colon): > 100 µM
TGI (OVCAR-8 ovarian): > 100 µM

CC(=O)CC(=O)N1CCOC1=O
TGI (CCRF-CEM leukemia): > 10 µM
TGI (HCT-15 colon): > 10 µM
TGI (OVCAR-8 ovarian): > 10 µM

COc1ccc(/[N+]([O-])=C/c2ccccc2OC(=S)S)cc1
TGI (HCT-15 colon): > 100 µM
TGI (OVCAR-8 ovarian): 45 µM
